# What was measured:
# Assay type in all cases: in vivo, human
# [1] = tested on: Prostate-specific antigen; assay: Serum prostate-specific antigen levels in a metastatic PCa patient; conditions: week 0 10.7 ng/ml
# Procedure: (§1) Patient Information A hormone-naïve person with newly diagnosed metastatic PCa was consented and was enrolled into the study. They were initiated on combined androgen blockade with bicalutamide and goserelin acetate. Magnetic resonance imaging scans were acquired at weeks 0 (baseline), 2, and 8 following treatment initiation which were used to generate the Functional Diffusion Maps at the 2 and 8 week time intervals. Due to pain and pathologic fracture, the patient was also treated with palliative radiation therapy encompassing the sacrum and ilium at 2 weeks post initiation of androgen deprivation therapy.
# Clinical Correlates Serum samples were obtained at weeks 0 (baseline), 2, and 8 following treatment initiation. Prostate-specific antigen levels were quantified and expressed in […] of plasma.
# [2] = tested on: metastatic PCa osseous lesions; assay: Tumor volume by T2-weighted MRI in a metastatic PCa patient; conditions: for Tumor volume, Ilium: pretreatment 2.34; for Tumor volume, Femoral Head: pretreatment 52.97; for Tumor volume, Sacrum: pretreatment 68.29
# Procedure: as §1
# (§2) Magnetic Resonance Imaging Magnetic resonance imaging (MRI) examinations including diffusion-weighted and standard anatomic sequences were performed before and 2 weeks after initiation of therapy. MR imaging was performed on a 3-T scanner (Achieva model; Philips Medical Systems, Bothell, Wash.) using a quadrature body coil for transmission and a six-channel cardiac coil for reception. Standard sequences for depiction of anatomy and tumor extent included axial proton density (repetition time [TR]/echo time [TE]=2700/30 msec, two averages) turbo spin-echo and axial T2-weighted turbo spin-echo (TR/TE=7800/60 msec, two averages) with fat suppression through a short inversion time (TI=200 msec). Geometry for these sequences was as follows: field of view, 281 mm right/left by 200 mm anterior/posterior; thirty-eight 4-mm sections with a 1-mm gap; 256—232 acquisition matrix for proton density; and 248 —165 for T2-weighted scans. Diffusion-weighted scans were acquired using fat-suppressed, single-shot, spinecho, echo-planar imaging to reduce motion artifact and parallel imaging (SENSE factor=2) to reduce spatial distortion. Geometry of the diffusion-weighted scans was as follows: 350 mm right/left by 302 mm anterior/posterior; thirty 5-mm sections with a 1-mm gap; 200—172 acquisition matrix; TR/TE=2000/58 msec; and 8 averages for low (b=0 sec/mm2) and 16 averages for high (b=800 sec/mm2) diffusion-sensitivity scans. Apparent diffusion coefficient (ADC) maps were calculated in the routine manner given by the logarithm of the ratio of low-b and high-b images, then scaled by the inverse of b-value difference.
# At the time of initial diagnosis, the patient underwent Tc-99 m MDP BS to ascertain the extent of skeletal involvement. […] After receiving androgen deprivation therapy for 7 weeks, increased sclerosis was observed by CT (FIG. 9B, arrow). […] Further characterization of the lesions was achieved by MRI. […] Tumor volumes were quantified using ROI analysis of each of the three tumors evaluated using T2-weighted MR images at weeks 0, 2, and 8 post-treatment initiation. […] Overall, tumor volume measurements were unable to detect significant perturbations in tumor size in the 8-week timeframe following treatment initiation.
# [3] = tested on: metastatic PCa osseous lesions; assay: fDM and mean ADC diffusion MRI of osseous lesions in a metastatic PCa patient; conditions: for mean ADC, femoral head lesion: baseline 74.5×10^−6; for mean ADC, sacral lesion: baseline 110.8×10^−6; for mean ADC, ilium lesion: baseline 78.0×10^−6
# Procedure: as §1, §2
# Diffusion Analysis Lesions in MR images acquired at weeks 2 and 8 were coregistered to their corresponding pretreatment MR images using an automatic algorithm based on maximizing mutual information. Registration was accomplished for each individual tumor located in the sacrum, ilium, and femoral head regions after the images were cropped to localize the registration to a limited region-of-interest (ROI) containing a single lesion. Lesions were manually contoured by a radiologist who defined the ROI by inspection of all available image data. Diffusion-average data were generated for weeks 0, 2 and 8 using the ROI contours of each of the three lesions and the mean change in diffusion values were calculated. Computation of fDMs for each lesion at weeks 2 and 8 was accomplished by comparison of voxels within the tumor at weeks 2 and 8 with the pretreatment values (week 0) as previously described (see, e.g., Moffat B A, et al., (2005) Proc Natl Acad Sci USA 102 (15), 5524-5529; Hamstra D A, et al., (2005) Proc Natl Acad Sci USA 102 (46), 16759-16764; each herein incorporated by reference in their entireties) using MIAMI Fuse (University of Michigan, Ann Arbor, Mich.) (see, e.g., Meyer C R, et al., (1997) Med Image Anal 1 (3), 195-206; herein incorporated by reference in its entirety). The tumor was segmented into three different categories wherein the red voxels represent regions within the tumor where ADC values increased (>[…]), the blue voxels represent a decreased ADC (<[…]), and the green regions represent tumor diffusion values that were within these thresholds (e.g., unchanged). […]
# [4] = Week 3 (so in the source), palliative radiation at 2 weeks
# [5] = 8 weeks posttreatment, palliative radiation at 2 weeks
# [6] = 8 weeks, palliative radiation at 2 weeks
substance,measurement,setting,value
bicalutamide and goserelin acetate,PSA level,[1]; week 2 posttreatment,1.3 ng/mL
same,PSA level,[1]; week 8 posttreatment,0.3 ng/mL
same,"Tumor volume, Ilium",[2]; Week 2,2.76 cm^3
same,"Tumor volume, Femoral Head",[2]; Week 2,51.52 cm^3
same,"Tumor volume, Sacrum",[2]; Week 2,69.46 cm^3
same,"Tumor volume, Ilium",[2]; [4],2.56 cm^3
same,"Tumor volume, Femoral Head",[2]; Week 3 (so in the source),51.35 cm^3
same,"Tumor volume, Sacrum",[2]; [4],72.21 cm^3
same,"mean percentage change from baseline of mean ADC, three lesions",[3]; 2 weeks,−0.7±4.7%
same,"decrease of mean ADC with respect to pre-therapy baseline, three lesions",[3]; 2 weeks post-therapy (FIG. 12 legend),0.7±4.8%
same,"fDM, tumor volume with increased ADC, ilium lesion",[3]; 2 weeks posttreatment,24.5%
same,"fDM, tumor volume with increased ADC, sacral lesion",[3]; 2 weeks posttreatment,26.4%
same,"decrease in mean ADC, sacral lesion",[3]; 2 weeks vs baseline,~10%
same,"mean ADC, femoral head lesion",[3]; 2 weeks,77.8×10^−6 mm^2/sec
same,"mean ADC, sacral lesion",[3]; 2 weeks,99.8×10^−6 mm^2/sec
same,"mean percentage change (increase) from baseline of mean ADC, three lesions",[3]; 8 weeks,8.3±4.3%
same,"fDM, tumor volume with increased ADC, femoral head lesion",[3]; 8 weeks posttreatment,36.4%
same,"fDM, tumor volume with increased ADC, ilium lesion",[3]; [5],47.1%
same,"fDM, tumor volume with increased ADC, sacral lesion",[3]; [5],29.0%
same,"increase in mean ADC above baseline, sacral lesion",[3]; 8 weeks vs baseline,~5%
same,"increase in mean ADC, ilium lesion",[3]; 8 weeks vs baseline,16.7%
same,"mean ADC, femoral head lesion",[3]; 8 weeks,76.8×10^−6 mm^2/sec
same,"mean ADC, ilium lesion",[3]; [6],91.1×10^−6 mm^2/sec
same,"mean ADC, sacral lesion",[3]; [6],116.2×10^−6 mm^2/sec
same,"average fDM percent of tumor volume with increased diffusion, three lesions",[3]; week 2,24±1.6%
same,"mean ADC, ilium lesion",[3]; week 2,80.7×10^−6 mm^2/sec
same,"fDM, volume with significant increase in ADC, femoral head lesion",[3]; week 2 posttreatment,21.1%
same,"average fDM percent of tumor volume with increased diffusion, three lesions",[3]; week 8,38±5.2%

# Reference: patent US8768431B2, “Systems and methods for tissue imaging” (The Regents of the University of Michigan, priority 2007, dated 2014)
